Laboratory results reported in ChEMBL document CHEMBL1134231, “Peptidomimetic inhibitors of protein farnesyltransferase show potent antimalarial activity” (Bioorg Med Chem Lett, 2001).
Converted amounts (≈) assume the structure as drawn.

Tests used:
[1] = biological target: Protein farnesyltransferase (Homo sapiens, UniProt P49354+P49356); assay: Inhibition of mammalian Farnesyltransferase; type: protein-complex assay
Plasmodium falciparum [2] = assay: Growth inhibition of Plasmodium falciparum 3D7 infected red blood cells; type: functional; conditions: read-out: ED50 (the source's name)
Plasmodium falciparum [3] = assay: Percent growth inhibition of Plasmodium falciparum 3D7 in erythrocytes at 20 uM; type: functional
[4] = biological target: Protein farnesyltransferase (Mus musculus, UniProt Q61239+Q8K2I1); assay: Inhibition of mammalian H-Ras processing in NIH 3T3 cells; type: functional, cell-based, NIH3T3
Plasmodium falciparum [5] = assay: Inhibition of Plasmodium falciparum 3D7 infected red blood cells; type: functional; conditions: read-out: ED50 (the source's name)

SMILES	IC50 [1] [µM]	EC50 (Plasmodium falciparum [2]) [mg/L]	inhibition at 20 µM (Plasmodium falciparum [3]) [%]	IC50 [4] [µM]	EC50 (Plasmodium falciparum [5]) [mg/L]
N#CCCNC(=O)c1ccc(NCc2cncn2Cc2ccc(C#N)cc2)cc1-c1ccccc1	0.22	10 (≈ 21.7 µM)			
CSCC[C@H](NC(=O)c1ccc(NCc2cncn2Cc2ccc(-c3ccccc3)cc2)cc1-c1ccccc1)C(=O)O	0.26	5 (≈ 8.46 µM)	89.1	> 100	
CSCC[C@H](NC(=O)c1ccc(NCc2cn(CC3CCCCC3)cn2)cc1-c1ccccc1)C(=O)O	0.78	> 30			
N#Cc1ccc(Cn2cncc2CNc2ccc(C(=O)NCc3ccccc3)c(-c3ccccc3)c2)cc1	0.64	4 (≈ 8.04 µM)			
CSCC[C@H](NC(=O)c1ccc(NC[C@@H](N)CS)cc1-c1ccccc1)C(=O)O					> 30
CSCC[C@H](NC(=O)c1ccc(NCc2cncn2CC2CCCCC2)cc1-c1ccccc1)C(=O)O	0.041	10 (≈ 19.2 µM)	72		
COC(=O)[C@H](CCSC)NC(=O)c1ccc(CNCc2c[nH]cn2)cc1-c1ccccc1C	34	2 (≈ 4.29 µM)	99	0.02	
CC(C)NC(=O)c1ccc(NCc2cncn2Cc2ccc(C#N)cc2)cc1-c1ccccc1	0.38	3 (≈ 6.67 µM)		> 100	
CSCC[C@H](NC(=O)c1ccc(NCc2cn(Cc3ccc(-c4ccccc4)cc3)cn2)cc1-c1ccccc1)C(=O)O	6	12 (≈ 20.3 µM)		> 100	
N#Cc1ccc(Cn2cncc2CNc2ccc(C(=O)NCC3CCCCC3)c(-c3ccccc3)c2)cc1	3.1	3 (≈ 5.96 µM)		> 100	
CSCC[C@H](NC(=O)c1ccc(NCc2cncn2Cc2ccc(C#N)cc2)cc1-c1ccccc1)C(=O)O	0.0072	13 (≈ 24.1 µM)	86.3	5	
CSCC[C@H](NC(=O)c1ccc(NCc2cn(Cc3cccc4ccccc34)cn2)cc1-c1ccccc1)C(=O)O	3	10 (≈ 17.7 µM)	19.4	> 100	
CSCC[C@H](NC(=O)c1ccc(CNCc2c[nH]cn2)cc1-c1ccccc1C)C(=O)O	0.001	> 30	0	0.2	
